Data published in PMC6680806, “Preparation of Retinoyl-Flavonolignan Hybrids and Their Antioxidant Properties” (Antioxidants, 2019).
Values joined by “and” are separate entries in the source; they are usually repeats but may differ in a detail not shown here. Identical values can stand only once.

Experiments:
DPPH radical scavenging = format: biochemical; conditions: 20 µM DPPH in methanol, 30 min, 25 °C, mean ± standard error
Method: The radical scavenging activity of the prepared conjugates, their parent compounds, their equimolar mixtures and retinol was evaluated as their capacity to scavenge 1,1-diphenyl-2-picrylhydrazyl radicals (DPPH, Sigma-Aldrich, Prague, Czech Republic), as described previously with minor modifications. Briefly, 15 µL of the tested substance (final concentration 0–20 mM in DMSO) was mixed with 285 µL of a freshly prepared methanolic DPPH solution (final concentration 20 µM) in a microtiter plate well. After 30 min at 25 °C, the absorbance at 517 nm was measured. The activity was expressed as the concentration of the compound required for reducing the absorbance to 50% (IC50) of its initial value.

[1] = Cupric reducing antioxidant capacity (CUPRAC); format: biochemical; conditions: mean ± standard error; values marked f: measurement disturbed by the formation of a precipitate
Method: (§1) Ferric reducing antioxidant power (FRAP) and cupric reducing antioxidant capacity (CUPRAC) were measured using kits from Bioquochem (Llanera-Asturias, Spain) according to the manufacturer´s instructions and expressed as trolox equivalents (TE). To determine oxygen radical absorption capacity (ORAC), 73 µL of fluorescein (1.8 mg/L) solution in phosphate buffered saline (PBS, pH 7.4) was mixed with 2 µL of the samples (0–20 µM) in the wells of a 96-well plate. After 15 min incubation (37 °C), 25 µL of freshly prepared 2,2′-azo-bis(2-amidinopropane) dihydrochloride (AAPH, 60 mg/mL) was added to each well except for the negative control, where AAPH was replaced for PBS. The fluorescence (ex./em., 485/535 nm) was recorded immediately and for the next 2 h with the measurement step for 5 min using a microplate reader (SpectraMax i3 Multi-Mode Detection Platform, Molecular Devices, Wokingham, UK).
(§2) The oxidations in living organism caused by free radicals are usually undesirable processes damaging such important biomolecules as DNA, proteins and lipids. The application of antioxidants is one of the most straightforward means to protect these biomolecules from oxidative stress. Many assays are available for determination of antioxidant potential in vitro. These assays are based on the reduction of stable radicals (DPPH), on the competitive bleaching of a probe (ORAC) or on the reduction of iron ions (CUPRAC, FRAP). CUPRAC test is very similar to FRAP assay but is based on the reduction of Cu^2+ in a neutral pH, while FRAP test is based on Fe^3+ in acidic pH. As each assay suffers from some limitations, a set of antioxidant tests was used here to combine more parameters.

[2] = Ferric reducing antioxidant power (FRAP); format: biochemical; conditions: mean ± standard error
Method: as §1, §2

HepG2 cell line = test: Cellular antioxidant activity (CAA); format: cell-based; conditions: Homo sapiens; HepG2 cells, DCFH-DA/AAPH; > = no activity noted at the highest concentration tested
Method: For cellular antioxidant activity (CAA) assay, the HepG2 cell line (ATCC, CCL-23TM, USA) was cultivated in Eagle’s Minimum Essential Medium (Sigma-Aldrich, USA) supplemented with 10% of foetal bovine serum, 2 mM L-glutamine and 1× Antibiotic Antimycotic Solution (Sigma-Aldrich, St. Louis, MO, USA) in a CO2 incubator (5% CO2, 37 °C, Thermo Fisher Scientific, Waltham, MA, USA) and passaged 2×/week using trypsin-EDTA solution. For the experiments, 100 µL of the cells (1 × 10^6 cells/mL, Cellometer Auto T4 Bright Field Cell Counter, Nexcelom Bioscience, Lawrence, MA, USA) were split into 96-well plates. After 24 h, the cells were washed 3× with PBS (MultiFlo Multi-Mode Dispenser, BioTek, USA) and Dulbecco’s Modified Eagle’s Medium (Sigma-Aldrich, St. Louis, MO, USA) supplemented with the 2′,7′-dichlorodihydrofluorescein diacetate (DCFH-DA, 0.0125 mg/mL) was added to each well together with the tested samples in the concentration range 0–500 µM. After incubation (1 h, CO2 incubator, 37 °C), the medium was manually replaced for AAPH solution (0.16 mg/mL) and the fluorescence (ex./em. 485/540 nm) was recorded immediately for 2 h with 5 min steps.
(§3) The main disadvantage of DPPH scavenging assay is the use of an unnatural radical. Such methods based on competitive probe reactions or indirect methods based on persistent radicals should only be used for preliminary screening purposes. Thus, to better characterize the potential of the obtained conjugates in terms of their biological activity, a series of simple, rapid, sensitive and reproducible biochemical antioxidant assays including FRAP, CUPRAC and ORAC [38] and a more relevant cellular antioxidant activity (CAA [37]) was measured (Table 2). […] Therefore, in this study, we compared two methods with the same mechanism of action: ORAC assay was performed as a classical biochemical method presenting the ability of tested compounds to quench peroxyl radicals generated from AAPH to protect fluorescein from oxidation. This assay serves better as a physical description of the tested compounds [37]. To reflect biological aspect, CAA was measured using the liver carcinoma HepG2 cell line where the compound must enter the cell to fulfil its role as an antioxidant. The CAA assay partially includes the bioavailability, aspects of uptake and metabolism.

[3] = Oxygen radical absorption capacity (ORAC); format: biochemical; conditions: fluorescein/AAPH, PBS pH 7.4, 37 °C; mean ± standard error
Method: as §1, §3

[4] = Stability of sample during ORAC and CAA measurement; format: physicochemical
Method: Dose-dependent curves were obtained in both ORAC and CAA assay for single compounds resulting in IC50 determination (Table 2). In contrast, no anti-oxidant activity of the conjugates was detected in liver cells in all the concentration range tested up to 50 or 500 µM. In fact, such a large concentration is not expectable in plasma.

[5] = parent compound alone, read-out: DPPH radical scavenging activity (IC50), parent compound
[6] = covalent retinoyl conjugate, read-out: DPPH radical scavenging activity (IC50), conjugate with retinoic acid

IC50 (DPPH radical scavenging; [5]) | IC50 (HepG2 cell line) | IC50 [3] | IC50 (DPPH radical scavenging; [6]) | Stability during ORAC and CAA measurement [4] | Structure (SMILES) | CUPRAC (cupric reducing antioxidant capacity) [1] | FRAP (ferric-reducing antioxidant potential, trolox equivalents) [2]
 | > 500 µM | 230 ± 8 µM | 540 µM |  | COc1cc([C@@H]2Oc3cc([C@H]4Oc5cc(OC(=O)/C=C(C)/C=C/C=C(C)/C=C/C6=C(C)CCCC6(C)C)cc(O)c5C(=O)[C@@H]4O)ccc3O[C@H]2CO)ccc1O [6b, Silybin B-7-O-retinoate] | 0.04 ± 0.01^f TE | 0.010 ± 0.001 *^,# TE
 | > 500 µM | 91 ± 4 µM | 666 µM |  | COc1cc(C2Oc3cc([C@H]4Oc5cc(OC(=O)/C=C(C)/C=C/C=C(C)/C=C/C6=C(C)CCCC6(C)C)cc(O)c5C(=O)[C@@H]4O)ccc3OC2CO)ccc1O (stereo partly drawn) [6ab, Silybin-7-O-retinoate] | 0.22 ± 0.01 TE | 0.03 ± 0.02 *^,# TE
 | > 500 µM | 174 ± 7 µM | 2360 µM |  | COc1cc([C@H]2Oc3ccc([C@H]4Oc5cc(OC(=O)/C=C(C)/C=C/C=C(C)/C=C/C6=C(C)CCCC6(C)C)cc(O)c5C(=O)[C@@H]4O)cc3O[C@@H]2CO)ccc1O [8a, Isosilybin A-7-O-retinoate] | 0.11 ± 0.01^f TE | 0.022 ± 0.003 *^,# TE
 | > 50 µM |  | 379 µM | unstable and decomposed | COc1cc([C@H]2Oc3cc([C@H]4Oc5cc(OC(=O)/C=C(C)/C=C/C=C(C)/C=C/C6=C(C)CCCC6(C)C)cc(O)c5C(=O)[C@@H]4O)ccc3O[C@@H]2CO)ccc1O [6a, Silybin A-7-O-retinoate] | 0.21 ± 0.02 TE | 0.038 ± 0.002 *^,# TE

Further lines, the compound ahead of its results:

Structure (SMILES) | IC50 (DPPH radical scavenging; [5]) | IC50 (HepG2 cell line) | IC50 [3] | IC50 (DPPH radical scavenging; [6]) | Stability during ORAC and CAA measurement [4] | CUPRAC (cupric reducing antioxidant capacity) [1] | FRAP (ferric-reducing antioxidant potential, trolox equivalents) [2]
COc1cc([C@@H]2Oc3cc([C@H]4Oc5cc(O)cc(O)c5C(=O)[C@@H]4O)ccc3O[C@H]2CO)ccc1O [3b, silybin B] | 659 ± 29 µM | 6.8 ± 0.5 µM | 8 ± 0.3 µM |  |  | 0.16 ± 0.02 TE | 0.268 ± 0.009 TE
CC1=C(/C=C/C(C)=C/C=C/C(C)=C/CO)C(C)(C)CCC1 [compound 1, Retinol] | 1480 µM and 745 µM | 1270 ± 147 µM | 169 ± 12 µM |  |  | 0.09 ± 0.01^f TE | 1.76 ± 0.04 TE
COc1cc(C2Oc3cc([C@H]4Oc5cc(O)cc(O)c5C(=O)[C@@H]4O)ccc3OC2CO)ccc1O (stereo partly drawn) [3ab, Silybin] | 472 ± 16 µM | 11.8 ± 0.3 µM | 7.8 ± 0.7 µM |  |  | 0.17 ± 0.00 TE | 0.335 ± 0.006 TE
CC1=C(/C=C/C(C)=C/C=C/C(C)=C/C(=O)O)C(C)(C)CCC1 [compound 2, Retinoic acid] | 745 µM and 1480 µM | 460 ± 211 µM | 13 ± 2 µM |  |  | 0.10 ± 0.02^f TE | 0.62 ± 0.02 TE
COc1cc([C@H]2Oc3cc([C@H]4Oc5cc(O)cc(O)c5C(=O)[C@@H]4O)ccc3O[C@@H]2CO)ccc1O [3a, silybin A] | 818 ± 22 µM | 10 ± 0.7 µM | 8.5 ± 0.4 µM |  |  | 0.20 ± 0.00 TE | 0.278 ± 0.005 TE
COc1cc(C2Oc3cc(-c4oc5cc(O)cc(O)c5c(=O)c4OC(=O)/C=C(C)/C=C/C=C(C)/C=C/C4=C(C)CCCC4(C)C)ccc3OC2CO)ccc1O (stereo not drawn) [compound 7, 2,3-Dehydrosilybin AB-3-O-retinoate] |  | > 500 µM | 130 ± 7 µM | 734 µM |  | 0.07 ± 0.02^f TE | 0.034 ± 0.005 *^,# TE
COc1cc([C@H]2Oc3ccc([C@H]4Oc5cc(O)cc(O)c5C(=O)[C@@H]4O)cc3O[C@@H]2CO)ccc1O [5a, isosilybin A] | 783 ± 9 µM | > 100 µM | 4.3 ± 1.1 µM |  |  | 0.16 ± 0.02 TE | 0.280 ± 0.006 TE
COc1cc(C2Oc3cc(-c4oc5cc(O)cc(O)c5c(=O)c4O)ccc3OC2CO)ccc1O (stereo not drawn) [compound 4, 2,3-dehydrosilybin] | 19.2 ± 0.3 µM | 10.9 ± 0.5 µM | 9.6 ± 0.4 µM |  |  | 0.25 ± 0.00 TE | 4.06 ± 0.05 TE
